Measured values: patent US7776826B2, “Method for fostering bone formation and preservation” (Unigene Laboratories, Inc., priority 2004, dated 2010)

Assays:
Type in all cases: in vivo, rat
Male Sprague-Dawley rats [1] = assay: MicroCT analysis of left femoral shafts, Groups A-J; conditions: left femoral shaft with bmx
Description: FIG. 6 illustrates the results of Micro Computerized Tomography (MicroCT) analyses of the left (ablated) femoral shafts of the rats which are the subjects of FIGS. 3-4. The abbreviations mean the same as in FIGS. 3-5;
FIG. 6 illustrates the results of a Micro Computerized Tomography (MicroCT) analysis of representative bones taken from the left femoral shaft of control and treated rats. The modality of treatment is set forth in the lower left corner of each of the views, and the abbreviations used therein are the same as those which appear in FIGS. 3-5. The Figure provides a view through a section of each such bone shaft.
The bones were thereafter subjected to a variety of sample analysis techniques. These included X-ray analysis wherein the femurs were X-rayed in individually sealed plastic bags; PIXIMUS analysis using a Lunar PIXIMUS scanner to measure bone mineral density in the bone marrow cavity of the femurs; MicroCT analysis; and blood analysis for osteocalcin, PTH, CT, NTX and growth factors.

Male Sprague-Dawley rats [2] = assay: pQCT analysis of left and right femoral shafts at day 21, Groups K-R
Description: (§1) FIG. 10 (a-b) presents high resolution radiograms of the left and right femurs, respectively, from an additional series of experiments on additional groups of male Sprague-Dawley rats (6 rats per group) aged 9 weeks which were sacrificed and tested after 21 days (3 weeks). The various groups were subjected to the following treatment modalities: Group K—control day 0; Group L—control day 21; Group M—bone marrow ablation (bmx) day 0; Group N—sham day 21; Group O— bmx+phosphate buffer saline (PBS) daily for 21 days; Group P—bmx+PTH[1-34]-NH2 daily for 21 days; Group Q—bmx+ parathyroid hormone related peptide (PTHRP) daily for 21 days; and Group R—bmx+rat α-calcitonin gene related peptide (CGRP) daily for 21 days;
FIG. 11 (a-d) are graphical representations of the results of Peripheral Quantitative Computerized Tomography (PQCT) analyses of, respectively, the left (ablated) and right (non-ablated) femoral shafts of the rats from Groups K-R (see description of FIG. 10). FIGS. 11(a) and 11(b) illustrate the trabecular bone density observed in, respectively the left and right femoral shafts at day 21; whereas, FIGS. 11(c) and 11(d) illustrate the total bone density of, respectively, the left and right femoral shafts at the same interval. The meanings of the abbreviations used in FIGS. 11(a-d) are identical to those described above with regard to FIG. 10. […] [+=p value<0.01 vs. sham; *=p value<0.01 vs. bmx+PTH; **=p value<0.01 vs. bmx+PTH; and #=p value<0.05 vs. PBS];
An additional series of experiments was thereafter carried out with additional groups of rats (K-R) in order to (1) measure the effect of additional bone anabolic agents, i.e., other than parathyroid hormone (PTH[1-34]-NH2) and calcitonin, as well as to compare the effect(s) achieved with such parathyroid hormone with those obtained with the use of alternate anabolic agents, including parathyroid hormone related peptide (PTHrP) and calcitonin gene related peptide (CGRP). As in the case of the analyses discussed above with regard to FIGS. 3-9, in the animals tested only the left femur underwent the bone marrow ablation (bmx) procedure, i.e., there was no ablation of the right femur. Thus, as noted above, any views of the right femur in the figures described below indicating bone marrow ablation (bmx) as a treatment modality should be taken to mean that such treatment was applied to the corresponding left femur. Further, as was additionally the case above, the samples described below with regard to FIGS. 10-13 were taken from the femur shafts, rather than the corresponding distal epiphysis as in the case of FIGS. 1 and 2. The figures discussed below depict the results of end-point studies wherein the measurements were taken only at the 21 day end-point.
FIG. 11 (a-d) graphically illustrates, by means of a bar graph, the improvements in trabecular bone density and, to some extent, total bone density, in the left femoral shaft of rats subjected to the treatment modalities described above with regard to FIG. 10 (a-b); that is, control day 0; bmx day 0; control day 21; sham day 21; bmx+PBS on day 21; bmx+PTH on day 21; bmx+PTHrP on day 21; and bmx+CGRP on day 21. Again, this is attributable that (only) the left femur was subjected to the bmx treatment, and thus was the only femur wherein the effects of such bmx treatment overlapped with that of the systemic treatment with the bone anabolic agent. […] In contrast to the values obtained for the left femur, no significant amount of bone was formed in the right femur, notwithstanding whether it is trabecular bone density or total bone density which is being measured. This lack of new bone is, furthermore, attributable to the fact that the right femur had not been subjected to the bone marrow ablation (bmx) treatment.

Male Sprague-Dawley rats [3] = assay: High resolution radiograms of left and right femurs, Groups K-R; conditions: left femur with bmx, agent daily for 21 days
Description: as §1
FIG. 10 (a-b) presents a set of high resolution radiograms of the entire left and right femurs of additional (to those described above) groups of rats, injected daily for a designated term with one or more of the following agents: phosphate buffer saline (PBS); parathyroid hormone (PTH[1-34]-NH2); parathyroid hormone related peptide (PTHrP); and calcitonin gene related peptide (CGRP). The rats chosen for test subjects were subjected to the following treatment modalities (as indicated in the lower left corner of each of the radiograms): control day 0; control day 21; bone marrow ablation (bmx) day 0; sham day 21; bmx followed by injection of PBS buffer daily for 21 days; bmx followed by injection of PTH daily for 21 days; bmx followed by injection of PTHrP daily for 21 days; and bmx followed by injection of CGRP daily for 21 days.
As shown by FIG. 10(a), the best results, i.e., the greatest bone density, was obtained in the left femur wherein the effect of the bone marrow ablation overlapped with that attributable to the administration of the various anabolic agents. As in the case of FIG. 3, the lighter, i.e, more radio-opaque, areas indicate the locations of the greatest additional bone growth.

Male Sprague-Dawley rats [4] = assay: Von Kossa stained sections of left femurs subjected to bmx; conditions: left femur with bmx, PTH daily for 21 days
Description: FIG. 8 illustrates sections (at 4× magnification) of undecalcified left femurs, subjected to bone marrow ablation (bmx), wherein the bone sections were stained with Von Kossa stain;
FIG. 8 provides views of stained and […] bone sections of the left femur of representative rats subjected to the following treatment modalities: Control day 0; Control day 21; Sham day 21; bmx day 0; bmx+PBS daily for 7 days; bmx+PBS daily for 14 days; bmx+PBS daily for 21 days; bmx+ parathyroid hormone (PTH[1-34]NH2) daily for 7 days; bmx+PTH daily for 14 days, and bmx+PTH daily for 21 days. […] These views provide substantial additional evidence of the efficacy of the method of the present invention.

[5] = ablated femur, day 21, agent daily for 21 days, Groups K-R
[6] = non-ablated femur, day 21, agent daily for 21 days, Groups K-R

PTH[1-34]-NH2
new bone growth in MicroCT, in words (Male Sprague-Dawley rats [1]): most extensive new bone growth
Left femoral shaft Total density mean (Male Sprague-Dawley rats [2]; [5]): 1100.2 mg/mL
Left femoral shaft Trabecular density mean (Male Sprague-Dawley rats [2]; [5]): 540.7 mg/mL
trabecular bone density of left femoral shaft, in words (Male Sprague-Dawley rats [2]; bmx, day 21): significantly improved
Right femoral shaft Total density mean (Male Sprague-Dawley rats [2]; [6]): 899.5 mg/mL
Right femoral shaft Trabecular density mean (Male Sprague-Dawley rats [2]; [6]): 128.3 mg/mL
bone density on radiograms, in words (Male Sprague-Dawley rats [3]): best results
bone growth within marrow cavity on stained sections, in words (Male Sprague-Dawley rats [4]): greatest such increase
